The target in data set [1] is recombinant human NF-kappaB-inducing kinase (NIK/MAP3K14) (Homo sapiens, UniProt Q99558). As to the kind of experiment: Inhibition of auto-phosphorylation of recombinant human NIK/MAP3K14 activity (AlphaScreen), Biological Assay A. The class given is biochemical. To be noted: averaged values over all measurements on all batches. On the procedure: Inhibition of Auto-Phosphorylation of Recombinant Human NF-kappaB-Inducing Kinase (NIK/MAP3K14) Activity (AlphaScreen®)
NIK/MAP3K14 auto-phosphorylation activity was measured using the AlphaScreen® (αscreen) format (Perkin Elmer). All compounds tested were dissolved in dimethyl sulfoxide (DMSO) and further dilutions were made in assay buffer. Final DMSO concentration was 1% (v/v) in assays. Assay buffer was 50 mM Tris pH 7.5 containing 1 mM EGTA (ethylene glycol tetraacetic acid), 1 mM DTT (dithiothreitol), 0.1 mM Na3VO4, 5 mM MgCl2, 0.01% Tween® 20. Assays were carried out in 384 well Alphaplates (Perkin Elmer). Incubations consisted of compound, 25 microM Adenosine-5′-triphosphate (ATP), and 0.2 nM NIK/MAP3K14. Incubations were initiated by addition of GST-tagged NIK/MAP3K14 enzyme, carried out for 1 h at 25° C. and terminated by addition of stop buffer containing anti-phospho-IKK Ser176/180 antibody. Protein A Acceptor and Glutathione-Donor beads were added before reading using an EnVision® Multilabel Plate Reader (Perkin Elmer). Signal obtained in the wells containing blank samples was subtracted from all other wells and IC50's were determined by fitting a sigmoidal curve to % inhibition of control versus Log10 compound concentration.
On the technique in general: Alpha assays give light when donor and acceptor beads are brought close together.

Data set [2] relates to JJN-3 (NIK translocated) multiple myeloma cells. The data set is described as follows: Antiproliferative activity on JJN-3 multiple myeloma cells (CellTiter-Glo, 96 hr), Biological Assay C. The class given is cell-based, human. The settings on record: Homo sapiens, JJN-3, 96 h, JJN-3 (NIK translocated) cells, averaged values, read-out: JJN-3 Proliferation inhibition (IC50 (nM)). On the procedure: (§1) Determination of Antiproliferative Activity on JJN-3 (NIK Translocated) and KMS12-BM (NIK WT) Multiple Myeloma Cells
(§2) All compounds tested were dissolved in DMSO and further dilutions were made in culture medium. Final DMSO concentration was 0.3% (v/v) in cell proliferation assays. Viability was assessed using CellTiter-Glo cell viability assay kit (Promega). The human JJN-3 and KMS12-BM cells (DSMZ) were cultured in RPMI 1640 medium supplemented with 2 mM L-glutamine, and 10% fetal calf serum (PAA). Cells were routinely kept as suspension cells at 37° C. in a humidified 5% CO2 atmosphere. Cells were passaged at a seeding density of 0.2×10^6/ml twice a week. Cells were seeded in black tissue culture treated 96-well plates (Perkin Elmer). Densities used for plating ranged from 15000 (JJN3) to 20000 (KMS12BM) cells per well in a total volume of 135 μl medium. Drugs and/or solvents were added (15 μl) to a final volume of 150 μl. Following 96 hr of treatment, plates were removed from the incubator and allowed to equilibrate to room temperature for approx 10 min. 75 μl CellTiter-Glo reagent was added to each well that was then covered (Perkin Elmer Topseal) and shaken on plate shaker for 10 min. Luminescence was measured on a HTS Topcount (Perkin Elmer).
(§3) Within an experiment, the results for each treatment were the mean of 2 replicate wells. For initial screening purposes, compounds were tested using a 9 point dilution curve (serial 1:3 dilutions). For each experiment, controls (containing no drug) and a blank incubation (containing cells read at the time of compound addition) were run in parallel. The blank value was subtracted from all control and sample values. For each sample, the mean value for cell growth (in relative light units) was expressed as a percentage of the mean value for cell growth of the control.
(In general: Cellular ATP, detected with luciferase, serves as a proxy for viable cell number.)

Data set [3] deals with KMS12-BM (NIK WT) multiple myeloma cells. As to the kind of experiment: Antiproliferative activity on KMS12-BM multiple myeloma cells (CellTiter-Glo, 96 hr), Biological Assay C. The settings on record: Homo sapiens, KMS-12-BM, 96 h, averaged values, read-out: KMS-12 Proliferation inhibition (IC50 (nM)). In kind it is cell-based, human. The method, then:
as §1, §2, §3

These results are taken from patent publication US11180487B2, “Substituted cyanoindoline derivatives as NIK inhibitors” (Janssen Pharmaceutica NV, priority 2016, dated 2021).

Sequence of recombinant human NF-kappaB-inducing kinase (NIK/MAP3K14) (Q99558 whole entry): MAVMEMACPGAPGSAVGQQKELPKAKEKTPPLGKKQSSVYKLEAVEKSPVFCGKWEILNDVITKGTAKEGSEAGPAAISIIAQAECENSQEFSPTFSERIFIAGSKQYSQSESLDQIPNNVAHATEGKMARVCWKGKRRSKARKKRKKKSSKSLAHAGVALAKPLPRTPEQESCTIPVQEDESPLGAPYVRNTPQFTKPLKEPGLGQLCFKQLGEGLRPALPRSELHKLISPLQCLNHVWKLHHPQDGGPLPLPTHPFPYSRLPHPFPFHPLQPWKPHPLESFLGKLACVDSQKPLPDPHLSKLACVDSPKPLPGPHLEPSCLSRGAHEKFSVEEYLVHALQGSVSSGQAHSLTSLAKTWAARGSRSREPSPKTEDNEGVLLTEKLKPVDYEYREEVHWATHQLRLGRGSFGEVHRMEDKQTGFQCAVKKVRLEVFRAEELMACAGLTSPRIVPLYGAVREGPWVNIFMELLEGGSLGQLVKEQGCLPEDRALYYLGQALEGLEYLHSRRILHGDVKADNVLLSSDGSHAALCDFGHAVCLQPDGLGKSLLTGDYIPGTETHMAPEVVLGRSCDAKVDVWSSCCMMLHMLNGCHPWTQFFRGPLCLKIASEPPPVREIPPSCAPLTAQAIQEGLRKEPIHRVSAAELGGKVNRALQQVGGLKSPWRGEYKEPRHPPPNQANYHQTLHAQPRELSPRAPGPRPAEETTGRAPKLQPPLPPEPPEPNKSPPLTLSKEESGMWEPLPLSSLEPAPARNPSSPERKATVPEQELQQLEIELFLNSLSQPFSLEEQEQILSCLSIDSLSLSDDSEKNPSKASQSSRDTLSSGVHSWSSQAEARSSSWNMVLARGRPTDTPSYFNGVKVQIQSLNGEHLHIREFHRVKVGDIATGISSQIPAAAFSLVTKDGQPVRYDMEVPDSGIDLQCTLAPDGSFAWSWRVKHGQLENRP

For `C[C@]1(CO)CNc2c(C#N)cc(-c3ccnc(Nc4cc(C#N)ccc4C(F)(F)F)n3)cc21` [Compound 70], the melting point (commonly the temperature, or range, at which the solid turns liquid) was 237 °C. In addition, in data set [1], the IC50 came out at 3.9 nM. The IC50 in data set [2] was found to be 2190 nM. For the same compound, in data set [3], the IC50 is above 10000 nM.
In turn, `C[C@]1(CO)CNc2c(C#N)cc(-c3ccnc(Nc4cc(C#N)ccc4C4CC4)n3)cc21` [Compound 71] had a melting point of 210 °C. In addition, in data set [1], the IC50 was 7.2 nM. For the same compound, in data set [2], the IC50 was found to be 148 nM. Besides, the IC50 in data set [3] is above 10000 nM.
In turn, `COCCCc1ccc(Cl)cc1Nc1nccc(-c2cc(C#N)c3c(c2)[C@@](C)(CO)CN3)n1` [Compound 72] gave a melting point of 189 °C. Moreover, the IC50 in data set [1] came out at 11 nM. In addition, in data set [2], the IC50 turned out to be 123 nM. The IC50 in data set [3] is above 10000 nM.
Regarding `Cc1cc(C2CCOCC2)c(C#N)cc1Nc1nccc(-c2cc(C#N)c3c(c2)[C@@](C)(CO)CN3)n1` [Compound 75], the melting point worked out at 228 °C. In data set [1], the IC50 was determined as 3.6 nM. Further, the IC50 in data set [2] worked out at 105 nM. Further, in data set [3], the IC50 is around 3310 nM.
In the same order, the values of `CC1(C)CNc2c(C#N)cc(-c3ccnc(Nc4cc(Cl)ccc4OC4CCN(C5CC5)CC4)n3)cc21` [Compound 99] are 120 °C, 219 nM, 380 nM and 8320 nM.
In the same order, the values of `COCCOc1ccc(Cl)cc1Nc1nccc(-c2cc(C#N)c3c(c2)C(C)(C)CN3)n1` [Compound 100] are 171 °C, 91.2 nM, 1410 nM and above 10000 nM.
With `CN1CCCC(Oc2ccc(Cl)cc2Nc2nccc(-c3cc(C#N)c4c(c3)C(C)(C)CN4)n2)C1` (stereo not drawn) [Compound 101], the melting point amounted to 104 °C. For the same compound, the IC50 in data set [1] was determined as 49 nM. Also, the IC50 in data set [2] was found to be 447 nM. In data set [3], the IC50 was 1350 nM.
As to `CC(C)Oc1ccc(Cl)cc1Nc1nccc(-c2cc(C#N)c3c(c2)C(C)(C)CN3)n1` [Compound 102], the melting point was 112 °C. Besides, the IC50 in data set [1] was determined as 403 nM. Besides, in data set [2], the IC50 was determined as 3550 nM. Besides, in data set [3], the IC50 is above 10000 nM.
In turn, `CC1(C)CNc2c(C#N)cc(-c3ccnc(Nc4cc(Cl)ccc4OC4CCOCC4)n3)cc21` [Compound 103] came in with a melting point of 126 °C. In data set [1], the IC50 amounted to 105 nM. In data set [2], the IC50 came to 3720 nM. Besides, in data set [3], the IC50 was above 10000 nM.
`COc1cc(Nc2nccc(-c3cc(C#N)c4c(c3)C(C)(C)CN4)n2)c(F)c(OC)c1` [Compound 104] registered a melting point of 176 °C. The IC50 in data set [1] was 12 nM. Besides, the IC50 in data set [2] was found to be 2140 nM. In data set [3], the IC50 was above 10000 nM.
`CC1(C)CNc2c(C#N)cc(-c3ccnc(Nc4cc(Cl)ccc4OCCO)n3)cc21` [Compound 107]: the melting point worked out at 176 °C. In data set [1], the IC50 came to 41.7 nM. For the same compound, the IC50 in data set [2] is 1020 nM. In data set [3], the IC50 was above 10000 nM.
`CC1(C)CNc2c(C#N)cc(-c3ccnc(Nc4ccccc4C(=O)N4CCC(O)C4)n3)cc21` (stereo not drawn) [Compound 111] came in with a melting point of 219 °C. For the same compound, in data set [1], the IC50 was 3550 nM. Also, the IC50 in data set [2] was 3470 nM. Further, the IC50 in data set [3] is above 10000 nM.
Compound `COc1cc(C(=O)NCC(C)O)c(Cl)cc1Nc1nccc(-c2cc(C#N)c3c(c2)C(C)(C)CN3)n1` (stereo not drawn) [Compound 112] gave a melting point above 260 °C. Further, the IC50 in data set [1] stood at 4.3 nM. Further, the IC50 in data set [2] worked out at 20 nM. Moreover, the IC50 in data set [3] is above 10000 nM.
With `COc1cc(C(=O)N2CC3(CCCNC3)C2)c(Cl)cc1Nc1nccc(-c2cc(C#N)c3c(c2)C(C)(C)CN3)n1` [Compound 113], the melting point was determined as 178 °C. In addition, in data set [1], the IC50 amounted to 2.6 nM. For the same compound, the IC50 in data set [2] was 28 nM. Further, the IC50 in data set [3] is around 407 nM.
In the same order, the values of `COc1cc(C(=O)N2CC3(CCNCC3)C2)c(Cl)cc1Nc1nccc(-c2cc(C#N)c3c(c2)C(C)(C)CN3)n1` [Compound 114] are 206 °C, 2.2 nM, 19 nM and 490 nM.
